Measurements published in US9949486B2, “Agrochemical composition comprising a N,N#-disubstituted (thio)urea for the improvement of crop productivity” (Crop Intellect Ltd., priority 2014, dated 2018).

How the values were obtained:
Format in all cases: in vivo
[1] = tested on: Lettuce; test: Lettuce greenhouse trial, foliar treatment
Procedure: (§1) Lettuce, beans, wheat and tomatoes were selected as plants to test the efficacy of the invention. Short term crops were grown in the greenhouse to ensure controlled condition and long term crops were grown outdoors in replicated trials. All relevant parameters to evaluate efficacy were tested including chlorophyll content, sugar levels, Mg and Fe tissue content, yield and quality characteristics. All trials were performed to good experimental practice (GEP) standards with adequate replication to conform to statistical comparisons. Environmental condition were monitored and kept the same between treatments for evaluation. John Innes soil based compost with low nutrient contents was used for the experiments and sieved to ensure uniformity. The applications were made to be applied at the equivalent of 5 lt/ha of end product in 180 lt of water. Treatments were administered foliarly just before runoff point. The magnesium and iron were in the form of Sulphate.

[2] = tested on: Tomatoes; test: Tomatoes trial under glass, foliar treatment; conditions: equivalent of 5 lt/ha
Procedure: as §1
The trial on tomatoes under glass had shown a significant increase in yield and quality characteristics with the application of the present invention. […] The internode length reduced on average by 20% which is desirable for tomato plants grown under glass due to the infrastructure restrictions and efforts towards vegetative growth.

[3] = tested on: Beans; test: Beans greenhouse trial, foliar treatment; conditions: equivalent of 5 lt/ha
Procedure: as §1, with “Sulphate. […] Larger plants expressed as weight per plant was observed together with an increase in chlorophyll content, Mg and Fe content in the plant tissue and leaf diameter (which promotes resource capture). A reduction in internode length was also observed which is favourable for many greenhouse and outdoor vegetable crops.” for “Sulphate.”

[4] = lettuce, foliar, equivalent of 5 lt/ha

In the case of `O=C(Nc1ccccc1)Nc1ccccc1` [DPU, 1,3-diphenylurea], the “Yield” value ([1]; lettuce fresh weight (yield st. error ±8), foliar, equivalent of 5 lt/ha of end product in 180 lt of water) is reported as 213 g, the “Fe content (mg/kg dw)” value ([1]; lettuce tissue, dry weight, foliar, equivalent of 5 lt/ha) is reported as 254 mg/kg dw and the “Mg content (mg/kg fw)” value ([1]; lettuce tissue, fresh weight, foliar, equivalent of 5 lt/ha) is reported as 480 mg/kg fw. For the same molecule, the “Chlorophyll (mg/cm^2)” value [1, 4] was 0.029 mg/cm^2, the Leaf number [1, 4] was 28 and the “Sugar level (%)” value [1, 4] was 5.5%. The “Weight loss (%)” value ([1]; lettuce, weight loss after 7 days in ambient temperature (indication of shelf life)) was 22%, the “Yield” value ([2]; average fruit fresh weight) was 132 g and the “Chlorophyll (mg/cm^2)” value [2] was 0.031 mg/cm^2. For the same molecule, the “Firmness (turgor MPa)” value [2] was 0.08 MPa, the Internode length [2] was 8.1 and the “Sugar level (%)” value [2] was 6.8%. For the same molecule, the “Fe content” value ([3]; beans plant tissue) was 86 mg/kg, the “Mg content (%)” value ([3]; beans plant tissue) was 0.42% and the “Chlorophyll (mg/cm^2)” value ([3]; beans) was 0.025 mg/cm^2. For the same molecule, the Internode length ([3]; beans) was 7, the “Leaf diameter (cm)” value ([3]; beans) was 7.8 cm and the “Yield” value ([3]; beans, fresh weight of above ground plant at 6 wks (st. error ±10)) was 364 g.
